# Experiments:
# Conditions in all cases: 72 h
# Caco-2 [1] = assay: cell viability relative to DMSO; higher = less toxic
# Calu-3 [2] = assay: as above
# HepG2 [3] = assay: as above
# U2OS [4] = assay: as above
# Vero E6 [5] = assay: as above
# Caco-2 [6] = assay: relative viability EC50 (midpoint between 100% and the lowest measured viability); higher = less toxic
# Calu-3 [7] = assay: as above
# HepG2 [8] = assay: as above
# U2OS [9] = assay: as above
# Vero E6 [10] = assay: as above
# Caco-2 [11] = assay: drug sensitivity score (DSS) for viability; higher = more toxic; extreme values may be limits of the assay
# Calu-3 [12] = assay: as above
# HepG2 [13] = assay: as above
# U2OS [14] = assay: as above
# Vero E6 [15] = assay: as above
Structure (SMILES),cell viability (Caco-2 [1]; 1 nM),cell viability (Caco-2 [1]; 10 nM),cell viability (Caco-2 [1]; 100 nM),cell viability (Caco-2 [1]; 1000 nM),cell viability (Caco-2 [1]; 10000 nM),cell viability (Calu-3 [2]; 1 nM),cell viability (Calu-3 [2]; 10 nM),cell viability (Calu-3 [2]; 100 nM),cell viability (Calu-3 [2]; 1000 nM),cell viability (Calu-3 [2]; 10000 nM),cell viability (HepG2 [3]; 1 nM),cell viability (HepG2 [3]; 10 nM),cell viability (HepG2 [3]; 100 nM),cell viability (HepG2 [3]; 1000 nM),cell viability (HepG2 [3]; 10000 nM),cell viability (U2OS [4]; 1 nM),cell viability (U2OS [4]; 10 nM),cell viability (U2OS [4]; 100 nM),cell viability (U2OS [4]; 1000 nM),cell viability (U2OS [4]; 10000 nM),cell viability (Vero E6 [5]; 1 nM),cell viability (Vero E6 [5]; 10 nM),cell viability (Vero E6 [5]; 100 nM),cell viability (Vero E6 [5]; 1000 nM),cell viability (Vero E6 [5]; 10000 nM),relative viability EC50 (Caco-2 [6]),relative viability EC50 (Calu-3 [7]),relative viability EC50 (HepG2 [8]),relative viability EC50 (U2OS [9]),relative viability EC50 (Vero E6 [10]),drug sensitivity score (Caco-2 [11]),drug sensitivity score (Calu-3 [12]),drug sensitivity score (HepG2 [13]),drug sensitivity score (U2OS [14]),drug sensitivity score (Vero E6 [15])
COc1ccc(COc2ccc(Cc3cnc(N)nc3N)cc2OC)cc1 [GW-2580],98.2%,97.6%,95.7%,102%,91.2%,110%,102%,97.2%,102%,99.7%,113%,108%,108%,99.5%,108%,99.2%,99.3%,94.3%,103%,92.2%,95.3%,97.9%,100%,98.3%,96%,> 10 µM,> 10 µM,> 10 µM,> 10 µM,> 10 µM,0,0,0,0,0
CC1(C)CN2C(CS/C(=N\C3CCCCC3)NC3CCCCC3)=CSC2=N1 [IT1t],91.6%,87.6%,99.5%,94.8%,82%,96.4%,116%,100%,89.7%,75.4%,96.7%,102%,96.7%,102%,88.8%,97.1%,95.8%,102%,97.5%,88.8%,94.5%,95.7%,92.1%,99.4%,96.9%,> 10 µM,> 10 µM,> 10 µM,> 10 µM,> 10 µM,0,2.2,0,0.1,0
CC1=C(/C=C/C(C)=C/C=C/C(C)=C/C=C/C=C(C)/C=C/C=C(C)/C=C/C2=C(C)C(=O)[C@@H](O)CC2(C)C)C(C)(C)C[C@H](O)C1=O [astaxanthin],103%,109%,84%,84.8%,81.9%,98.9%,97.6%,101%,96.4%,99.6%,84.3%,102%,98.9%,102%,107%,97.8%,104%,100%,93.6%,98.4%,102%,96.9%,103%,101%,92.1%,> 10 µM,> 10 µM,> 10 µM,> 10 µM,> 10 µM,3.6,0,0,0,0
COc1ccc2[nH]c([S+]([O-])Cc3ncc(C)c(OC)c3C)nc2c1 (stereo not given) [omeprazole-magnesium],90.7%,72.4%,100%,97.4%,107%,93.3%,104%,98.7%,95.5%,98.9%,87.7%,98.4%,86.3%,99.7%,95.1%,96.6%,97.3%,102%,94.3%,96%,102%,105%,96.2%,96.3%,110%,> 10 µM,> 10 µM,> 10 µM,> 10 µM,> 10 µM,0,0,0,0,0
Fc1ccc(Cl)cc1-c1nc(Nc2ccncc2)c2nccnc2n1 [SD-208],108%,102%,104%,93.4%,93.2%,107%,94.9%,111%,105%,103%,107%,107%,103%,95.6%,98.2%,103%,101%,96.5%,90.1%,91.2%,102%,103%,106%,96.5%,86.2%,> 10 µM,> 10 µM,> 10 µM,> 10 µM,> 10 µM,0,0,0,0,0.4
CCN(c1ccccc1)c1cc(=NC)n(C)c(C)n1 [ZD-7288],103%,102%,113%,101%,97.3%,106%,101%,91.8%,103%,96.9%,98.1%,109%,99.4%,102%,93.5%,97.4%,97.6%,103%,98.7%,96%,108%,103%,99.3%,102%,99%,> 10 µM,> 10 µM,> 10 µM,> 10 µM,> 10 µM,0,0,0,0,0
N#CCC1(n2cc(-c3ncnc4[nH]ccc34)cn2)CN(C2CCN(C(=O)c3ccnc(C(F)(F)F)c3F)CC2)C1 [itacitinib],101%,98.6%,97.2%,132%,90.1%,111%,104%,101%,93.6%,90.4%,95.3%,98.9%,95%,96.1%,91.6%,98.6%,91%,97.5%,95.8%,96%,100%,96.1%,98.3%,100%,98.5%,> 10 µM,> 10 µM,> 10 µM,> 10 µM,> 10 µM,0,0,0,0,0

# Reference: the supplement of paper PMC13380429
